{"source": "patent EP0133795B1", "about": "(THE McLEAN HOSPITAL CORPORATION, priority 1983, dated 1985)", "key": {"[1]": {"tested_on": "bicuculline-induced epileptic seizures", "assay": "Delay of onset of bicuculline-induced seizures (anticonvulsant activity)", "assay_type": "in vivo, mouse", "settings": "for Onset of seizures: % Saline Control / Survival Time: % Saline Control: 24 hr pretreatment"}, "[2]": {"assay": "n-Octanol/water partition coefficient", "assay_type": "physicochemical", "settings": "5 ml n-octanol / 5 ml water, stirring 18 hours", "method": "A Partition Coefficient was defined by the equation: [formula] representing the amount of the ester taken up per ml of n-octanol relative to the amount of the same compound taken up per ml of water.\nThe n-octanol/water partition coefficients were obtained from measurements of the distribution of 1, 3, 5 and 6 pmol quantities of each ^14C-labeled compound into a mixture of 5 ml of n-octanol and 5 ml water. At each concentration, the amount of labeled compound in the aqueous and n-octanol phases was calculated from the amount of radioactive material present after stirring for 18 hours."}, "CAI pyramidal cells": {"tested_on": "CAI pyramidal cells", "assay_type": "cell-based, Sprague-Dawley rats", "method": "Transverse slices of hippocampus (350-375 µm thick) were prepared from Sprague-Dawley rats (200-300 g) and transferred onto a nylon net fixed over a 1.5 ml superfusion chamber. The slices were maintained at 32-33°C in a humidified atmosphere of 95%/5% 02/C02. The standard medium consisted of (in mM): NaCl, 125; KCI, 3.5; CaC12,2; MgS04, 1.5; NaH2PO4, 1; NaHC03, 24; and glucose, 10. Low chloride medium was prepared by substituting sodium isethionate for sodium chloride.\nExtracellular potentials were recorded with NaCI-fitted micropipettes, and stimulus pulses were applied through bipolar platinum wire electrodes. The various drugs were dissolved in fresh medium (without glucose and phosphate) and applied to the surface of the tissue by pressure ejection from a micropipette, Sakai, Swartz and Woody, (1979).\nThe inhibitory effectiveness of various compounds was investigated by measuring their ability to suppress the extracellular population spike recorded from the hippocampal CAI pyramidal layer and elicited by stimulation of stratum radiatum axons. The amplitude of this monosynaptic population spike is essentially proportional to the number of pyramidal cells discharging in response to a stimulus volley, Andersen, Bliss and Skrede, (1971).\nThe various compounds were applied as droplets to the pyramidal layer approximately 75 µm from the recording electrode. The volume of a single drug application was about 300 picoliters. […] The volume ejected from each pipette was calibrated prior to use by measuring the diameter of the ejected droplet and adjusting the duration of the pressure pulse (usually 100-500 msec) until a standard diameter was reached. A constant droplet volume was used throughout the experiments. Where dose-response information was required, several pipettes with different drug concentrations were used."}, "[3]": {"assay": "Enzymatic hydrolysis of cholesteryl [14C]GABA ester by rat brain homogenate", "assay_type": "in vitro ADME", "settings": "3 mg/ml, 37°C, S1 fractions of rat brain homogenates (0.8 mg/ml of protein)", "description": "Cholesterol hydrolases and esterases are present in mammalian brain tissue."}, "general motor activity": {"tested_on": "general motor activity", "assay": "General motor activity of rats (dose-response, Fig. 1)", "assay_type": "in vivo", "settings": "n = 6 per dose", "description": "• Figures 1A and 1 B show the effects of cholesteryl-GABA on general motor activity."}, "[4]": {"tested_on": "general motor activity of mice", "assay": "General locomotor activity of mice (Stoelting electronic activity monitor)", "assay_type": "in vivo, Balb/c mice"}, "[5]": {"settings": "16 mg/kg, bicuculline 0.3 mg/kg"}, "[6]": {"settings": "30 mg/kg, bicuculline 0.3 mg/kg"}, "[7]": {"settings": "84 mg/kg, bicuculline 0.3 mg/kg, mean ± SEM, n ≥ 6"}}}
{"substance": "(3-Cholesteryl)-gamma-Aminobutyrate [Compound 6]", "values": [{"measurement": "Onset of seizures: % Saline Control", "setting": "[1]; 3 mg/kg, bicuculline 0.3 mg/kg", "result": "120 ± 6", "unit": "% Saline Control"}, {"measurement": "Survival Time: % Saline Control", "setting": "[1]; 3 mg/kg, bicuculline 0.3 mg/kg", "result": "95 ± 15", "unit": "% Saline Control"}, {"measurement": "Onset of seizures: % Saline Control", "setting": "[1]; [5]", "result": "129 ± 4", "unit": "% Saline Control"}, {"measurement": "Survival Time: % Saline Control", "setting": "[1]; [5]", "result": "101 ± 20", "unit": "% Saline Control"}, {"measurement": "Onset of seizures: % Saline Control", "setting": "[1]; [6]", "result": "130 ± 8", "unit": "% Saline Control"}, {"measurement": "Survival Time: % Saline Control", "setting": "[1]; [6]", "result": "104 ± 18", "unit": "% Saline Control"}, {"measurement": "Onset of seizures: % Saline Control", "setting": "[1]; [7]", "result": "137 ± 7", "unit": "% Saline Control"}, {"measurement": "Survival Time: % Saline Control", "setting": "[1]; [7]", "result": "109 ± 9", "unit": "% Saline Control"}, {"measurement": "delay of onset of seizures", "setting": "[1]; 24 hr after i.p. injection of 30 mg/kg, bicuculline 0.3 mg/kg", "result": 30, "unit": "%"}, {"measurement": "In Vivo Delay of Time of Onset of Bicuculline-induced seizures", "setting": "[1]; graded 0-5", "result": 5}, {"measurement": "KOW: Octanol/Water Partition Coefficient", "setting": "[2]", "result": "110."}, {"measurement": "duration of the effect relative to a similar dose of GABA", "setting": "CAI pyramidal cells", "result": "roughly an order of magnitude longer"}, {"measurement": "effect after incubation of slices in PMSF (0.5 mM) for about 45 min", "setting": "CAI pyramidal cells", "result": "significantly reduced"}, {"measurement": "effect with picrotoxin (10 µM) in the medium or low chloride medium", "setting": "CAI pyramidal cells", "result": "essentially eliminate the C-G effect"}, {"measurement": "recovery of the population spike amplitude to 90% of the pre-droplet control value", "setting": "CAI pyramidal cells; after an approximately half-maximal dose", "result": "about 14 min"}, {"measurement": "inhibition of the evoked population spike", "setting": "CAI pyramidal cells; droplets applied to the CAI pyramidal layer", "result": "dose-dependent inhibition"}, {"measurement": "Amount of Unreacted Substrate (6)", "setting": "[3]; 10 min, 40 μl aliquots, TLC", "result": "53.0 ± 7.0", "unit": "nmol"}, {"measurement": "Amount of Unreacted Substrate (6)", "setting": "[3]; 30 min", "result": "43.5 ± 6.3", "unit": "nmol"}, {"measurement": "Amount of Unreacted Substrate (6)", "setting": "[3]; 60 min", "result": "34.5 ± 4.9", "unit": "nmol"}, {"measurement": "i.p. injected dose at which motor activity was reduced by 50%", "setting": "general motor activity", "result": 8, "unit": "µmol/kg"}, {"measurement": "In Vivo Inhibition of General Motor Activity", "setting": "[4]; graded 0-5", "result": 5}, {"measurement": "activity in the general motor activity test (in words)", "setting": "[4]; i.p., mice", "result": "active"}, {"measurement": "i.p. injected dose at which motor activity was reduced by 50%", "setting": "[4]; mice, Fig. 1, n = 6 per dose, 60 min", "result": 17, "unit": "µmol/kg"}]}
